What was measured:
[1] = test system: IL-1β mediated adhesion of neutrophils; experiment: Inhibition of IL-1β mediated adhesion of neutrophils (PMN) to human dermal microvascular endothelial cells; format: cell-based
Procedure: Three samples identical to those in example 4 were tested for their ability to inhibit endothelial adhesion of neutrophils by interfering with the effects of IL-1β. These samples were tested at final concentrations of 0.1% and 1% (w/v). Neutrophil adhesion was inhibited dose dependently with all samples tested. Adhesion of PMN to human dermal microvascular cells is a required step in the recruitment of leukocytes into the site of infection or irritation and was modeled for this assay in the following manner. […] The PMN rich fraction was removed and RBC were lysed with hypotonic saline. The PMN were washed twice with Hank's balanced salt solution (HBSS) and then resuspended in 5.0 ml HBSS with ions supplemented with 0.4% bovine serum albumin (Sigma). The concentration of cells was adjusted to 10×106 PMN/ml. Collected PMNs were greater than 95% pure and 98% viable as assessed by the trypan blue exclusion assay. […] In preliminary experiments the optimum concentrations of stimulatory agents (IL-1β, 10 U/ml and TPA, 5 ng/ml) were determined. […] After 30-45 min, the wells were read in an ELISA reader (Bio-Tek Instruments Inc, Winooslei, Vt., USA) at 570 nm. The level of adherence was given as the mean optical density (OD) reading at an OD570 for wells containing endothelial cells plus PMN minus the mean OD570 of wells containing endothelial cells alone.

[2] = test system: LTB4-mediated neutrophil chemotaxis; experiment: Inhibition of neutrophil (PMN) chemotaxis toward LTB4, Boyden chamber; format: cell-based, human
Procedure: Three test samples, identical to powder samples 1, 2 and 3 in Example 1, were assayed for their ability to inhibit neutrophil chemotaxis toward Leukotriene B4. The assay is designed to assess the ability of a material to inhibit the migration of polymorphonuclear leukocytes (PMN) toward a known chemotactic agent, LTB4. […] The PMN rich fraction was removed and red blood cells (RBC) were lysed with hypotonic saline. The PMN were washed twice with Hank's Balanced Salt Solution (HBSS) and then resuspended in 5.0 ml HBSS with ions supplemented with 0.4% bovine serum albumin (Sigma). The concentration of cells was adjusted to 10×106 PMN/ml. Collected PMNs were greater than 95% pure and 98% viable as assessed by the trypan blue exclusion assay. The assay was performed using the Boyden chamber apparatus with blind well chambers fitted with 5 μm pore size filters (Millipore). The apparatus consists of two vertical chambers separated by a filter that contains pores of a size chosen such that the holes are large enough for the cells to actively crawl through them but not so large that the cells can physically fall through into the lower chamber. […] The chemoattractant used in the present experiment was 0.125 nM LTB4. Following incubation at 37° C. for 90 min., under a humidified atmosphere with 5% CO2, the filters were fixed with propanol and stained with haematoxylin and eosin. The PMN chemotactic response was determined by the distance to the leading front and the number of cells that migrated to the front. The distance to the leading front was determined at 400× magnification by the distance the majority of the cells migrated through the filter. The results were expressed as the average number of cells per high powered field at the leading (migratory) front (PMN/HPF). In this assay, 0.5% caffeine was used as a positive control. A negative control, with no anti-chemotactic agent, was also used. The results, shown in Table 4, are the percent reduction in chemotactic activity compared to the negative control.

Cn1c(=O)c2c(ncn2C)n(C)c1=O [caffeine]
Percent reduction in adhesion activity compared to negative control ([1]; Example 5, 1.0% (w/v), IL-1β 10 U/ml): 64%
Percent reduction in adhesion activity compared to negative control ([1]; Example 8, positive control at 1.0% concentration): 47%
Percent reduction in chemotactic activity compared to the negative control ([2]; Example 2, 0.5% (w/v), 0.125 nM LTB4): 96%
Percent reduction in chemotactic activity compared to negative control ([2]; Example 4, 0.1% (w/v), 0.125 nM LTB4): 93%
Percent reduction in chemotactic activity compared to negative control ([2]; Example 6, concentration 0.5%): 94%
Percent reduction in chemotactic activity compared to negative control ([2]; Example 7, positive control at 0.5% concentration): 97%

Reference: patent US7575764B2, “Compositions comprising hypsizygus ulmarius extract” (ELC Management LLC, priority 2005, dated 2009)
